Converted amounts (≈) assume the structure as drawn. Like-named read-outs stand apart in the source and are kept apart here.
Tests used:
[1] = test system: Escherichia coli (Ec); assay: Minimum inhibitory concentration (MIC) in nutrient agar; type: cell-based, Escherichia coli ATCC 11229; details: 48 h
Description: (§1) The minimum inhibitory concentration (MIC) for the compounds listed in Table I is determined for 9 bacteria, using nutrient agar: and 7 yeast and fungi, using malt yeast agar. A one percent solution of the test compound is prepared in a mixture of acetone and water. Nutrient agar is prepared at pH 6.8, representing a neutral medium, and at pH 8.2, representing an alkaline medium. The nutrient agars are prepared by adding 23 g of nutrient agar to one-liter of deionized water. In addition, the alkaline medium is prepared by adjusting a 0.04M solution of N-[tris-(hydroxymethyl)methyl]-glycine buffered deionized water with concentrated sodium hydroxide to a pH of […]. Malt yeast agar is prepared by adding 3 g yeast extract and 45 g malt agar per liter of deionized water. The specific agar is dispensed in 30 ml aliquots into 25×200 mm test tubes, capped and autoclaved for 15 minutes at 115° C. The test tubes containing the agar are cooled in a water bath until the temperature of the agar is 48° C. Then, an appropriate amount of the one percent solution of the test compound is added (except in the controls where no compound is added) to the respective test tubes so that the final concentrations are 500, 250, 100, 50, 25, 10, 5, 2.5, 1.0 and zero parts per million of the test compound in the agar, thus having a known concentration of test compound dispersed therein. The contents of the test tubes are then transferred to respective petri plates. After drying for 24 hours, the petri plates containing nutrient agar are inoculated with bacteria and those containing malt yeast agar are inoculated with yeast and fungi.
(§2) The inoculation with bacteria is accomplished by using the following procedure. Twenty-four hour-cultures of each of the bacteria are prepared by incubating the respective bacteria in tubes containing nutrient broth for 24 hours at 30° C. in a shaker. Dilutions of each of the 24 hour-cultures are made so that nine separate suspensions (one for each of the nine test bacteria) are made, each containing 10^8 colony forming units (CFU) per ml of suspension of a particular bacteria. Aliquots of 0.3 ml of each of the bacterial suspensions are used to fill the individual wells of Steer's Replicator. For each microbial suspension, 0.3 ml was used to fill three wells (i.e., three wells of 0.3 ml each) so that for the nine different bacteria, 27 wells are filled. The Steer's Replicator is then used to inoculate both the neutral and alkaline pH nutrient agar petri plates.
(§3) The inoculated petri plates are incubated at 30° C. for 48 hours and then read to determine if the test compound which is incorporated into the agar prevented growth of the respective bacteria.
(§4) Table II lists the bacteria, yeast and fungi used in the MIC test described above along with their respective American Type Culture Collection (ATCC) identification numbers.

[2] = test system: Staphylococcus aureus (Sa); assay: as above; type: cell-based, Staphylococcus aureus ATCC 6538
Description: as §1, §2, §3, §4

[3] = test system: Pseudomonas aeruginosa (PRD-10); assay: as above; type: cell-based, Pseudomonas aeruginosa ATCC 15442; details: 48 h
Description: as §1, §2, §3, §4

[4] = test system: Candida albicans (Ca); assay: Minimum inhibitory concentration (MIC) in malt yeast agar; type: cell-based, Candida albicans ATCC 10231; details: malt yeast agar; 30° C.; 48 hours for yeast; read-out: Minimum Inhibitory Concentration, Ca
Description: as §1
(§5) The inoculation with the yeast and fungi is accomplished as follows. Cultures of yeast and fungi are incubated for seven days on malt yeast agar at 30° C. These cultures are used to prepare suspensions by the following procedure. A suspension of each organism is prepared by adding 10 ml of sterile saline and 10 microliters of octylphenoxy polyethoxy ethanol to the agar slant of yeast or fungi. The sterile saline/octylphenoxy polyethoxy ethanol solution is then agitated with a sterile swab to suspend the microorganism grown on the slant. Each resulting suspension is diluted into sterile saline (1 part suspension: 9 parts sterile saline). Aliquots of these dilutions are placed in individual wells of Steer's Replicator and petri plates inoculated as previously described. The petri plates are incubated at 30° C. and read after 48 hours for yeast and 72 hours for fungi.
as §4

[5] = test system: Aureobasidium pullulan (Ap); assay: as above; type: cell-based, Aureobasidium pullulan ATCC 16622; details: malt yeast agar; 30° C.; 48 hours for yeast and 72 hours for fungi; read-out: Minimum Inhibitory Concentration, Ap
Description: as §1, §5, §4

[6] = test system: Salmonella choleraesuis (Sc); assay: Minimum inhibitory concentration (MIC) in nutrient agar; type: cell-based, Salmonella choleraesuis ATCC 10708; details: Salmonella enterica, 48 h
Description: as §1, §2, §3, §4

[7] = test system: Saccharomyces cerevisiae (Sc); assay: Minimum inhibitory concentration (MIC) in malt yeast agar; type: cell-based, Saccharomyces cerevisiae ATCC 4105; details: read-out: Minimum Inhibitory Concentration, Sc
Description: as §1, §5, §4

[8] = test system: Fusarium oxysporum (Fo); assay: as above; type: cell-based, Fusarium oxysporum ATCC 48112; details: read-out: Minimum Inhibitory Concentration, Fo
Description: as §1, §5, §4

[9] = test system: Pseudomonas aeruginosa (Pa); assay: Minimum inhibitory concentration (MIC) in nutrient agar; type: cell-based, Pseudomonas aeruginosa ATCC 10145; details: 48 hours
Description: as §1, §2, §3, §4

[10] = test system: Enterobacter aerogenes (Ea); assay: as above; type: cell-based, Enterobacter aerogenes ATCC 13048; details: Klebsiella aerogenes, 48 h
Description: as §1, §2, §3, §4

[11] = test system: Klebsiella pneumoniae (Kp); assay: as above; type: cell-based, Klebsiella pneumoniae ATCC 8308
Description: as §1, §2, §3, §4

[12] = test system: Trichoderma viride (Tv); assay: Minimum inhibitory concentration (MIC) in malt yeast agar; type: cell-based, Trichoderma viride ATCC 8678; details: read-out: Minimum Inhibitory Concentration, Tv
Description: as §1, §5, §4

[13] = test system: Aspergillus niger (An); assay: as above; type: cell-based, Aspergillus niger ATCC 16404; details: malt yeast agar; 30° C.; 72 hours for fungi; read-out: Minimum Inhibitory Concentration, An
Description: as §1, §5, §4

[14] = test system: Proteus vulgaris (Pv); assay: Minimum inhibitory concentration (MIC) in nutrient agar; type: cell-based, Proteus vulgaris ATCC 881; details: 48 h
Description: as §1, §2, §3, §4

[15] = test system: Penicillium chrysogenum (Pc); assay: Minimum inhibitory concentration (MIC) in malt yeast agar; type: cell-based, Penicillium chrysogenum ATCC 9480; details: read-out: Minimum Inhibitory Concentration, Pc
Description: as §1, §5, §4

[16] = test system: Bacillus subtilis (Bs); assay: Minimum inhibitory concentration (MIC) in nutrient agar; type: cell-based, Bacillus subtilis ATCC 8473
Description: as §1, §2, §3, §4

[17] = pH 6.8, read-out: Minimum Inhibitory Concentration, Ec
[18] = pH 8.2, read-out: Minimum Inhibitory Concentration, Ec
[19] = 48 h, pH 8.2, read-out: Minimum Inhibitory Concentration, Sa
[20] = pH 6.8, nutrient agar, 30° C., 48 hours, read-out: Minimum Inhibitory Concentration, Sa
[21] = pH 6.8, read-out: Minimum Inhibitory Concentration, PRD
[22] = pH 8.2, read-out: Minimum Inhibitory Concentration, PRD
[23] = pH 6.8, read-out: Minimum Inhibitory Concentration, Sc
[24] = pH 8.2, read-out: Minimum Inhibitory Concentration, Sc
[25] = malt yeast agar, 30° C., 48 hours for yeast
[26] = malt yeast agar, 30° C., 72 hours for fungi
[27] = pH 6.8, read-out: Minimum Inhibitory Concentration, Ea
[28] = pH 8.2, read-out: Minimum Inhibitory Concentration, Ea
[29] = 48 h, pH 8.2, read-out: Minimum Inhibitory Concentration, Kp
[30] = pH 6.8, nutrient agar, 30° C., 48 hours, read-out: Minimum Inhibitory Concentration, Kp
[31] = pH 6.8, read-out: Minimum Inhibitory Concentration, Pv
[32] = pH 8.2, read-out: Minimum Inhibitory Concentration, Pv
[33] = 48 h, pH 6.8, read-out: Minimum Inhibitory Concentration, Bs
[34] = 48 h, pH 8.2, read-out: Minimum Inhibitory Concentration, Bs

Structure (SMILES)	MIC [1, 17]	MIC [1, 18]	MIC [2, 19]	MIC [2, 20]	MIC [3, 21]	MIC [3, 22]	MIC [4]	MIC [5]	MIC [6, 23]	MIC [6, 24]	MIC [7, 25]	MIC ([9]; pH 6.8, 30° C.)	MIC ([9]; pH 8.2, 30° C.)	MIC [10, 27]	MIC [10, 28]	MIC [11, 29]	MIC [11, 30]	MIC [13]	MIC [14, 31]	MIC [14, 32]	further results
N#CC(C#N)=C1Sc2nc3ccccc3nc2S1 [Compound P, 1,3-dithiolo-(4,5-b)-quinoxaline-2-ylidene-propanedinitrile]	> 500 µg/mL	> 500 µg/mL	> 500 µg/mL	> 500 µg/mL	> 500 µg/mL	> 500 µg/mL	> 500 µg/mL	500 µg/mL (≈ 1860 µM)	> 500 µg/mL	> 500 µg/mL	> 500 µg/mL	> 500 µg/mL	> 500 µg/mL	> 500 µg/mL	> 500 µg/mL	> 500 µg/mL	> 500 µg/mL	500 µg/mL (≈ 1860 µM)	> 500 µg/mL	> 500 µg/mL	MIC [8, 26]: > 500 µg/mL; MIC [12, 26]: > 500 µg/mL; MIC [15, 26]: 500 µg/mL (≈ 1860 µM); MIC [16, 33]: > 500 µg/mL; MIC [16, 34]: > 500 µg/mL
Cc1ccc2nc3c(nc2c1)SC(=C(C#N)C#N)S3 [N, 6-methyl-1,3-dithiolo-(4,5-b)-quinoxaline-2-ylidene-propanedinitrile]	> 500 µg/mL	> 500 µg/mL	> 500 µg/mL	> 500 µg/mL	> 500 µg/mL	> 500 µg/mL	> 500 µg/mL	500 µg/mL (≈ 1770 µM)	500 µg/mL (≈ 1770 µM)	> 500 µg/mL	> 500 µg/mL	> 500 µg/mL	> 500 µg/mL	> 500 µg/mL	> 500 µg/mL	> 500 µg/mL	> 500 µg/mL	500 µg/mL (≈ 1770 µM)	> 500 µg/mL	> 500 µg/mL	MIC [8, 26]: > 500 µg/mL; MIC [12, 26]: > 500 µg/mL; MIC [15, 26]: 500 µg/mL (≈ 1770 µM); MIC [16, 33]: > 500 µg/mL; MIC [16, 34]: > 500 µg/mL
N#CC1=C(C#N)Sc2nc3cc([N+](=O)[O-])c(Cl)cc3nc2S1 [G, 7-chloro-8-nitro-1,4-dithiino-(2,3-b)-quinoxaline-2,3-dicarbonitrile]	> 500 µg/mL	> 500 µg/mL		25 µg/mL (≈ 71.9 µM)	> 500 µg/mL	> 500 µg/mL	25 µg/mL (≈ 71.9 µM)	25 µg/mL (≈ 71.9 µM)	> 500 µg/mL	> 500 µg/mL		> 500 µg/mL	> 500 µg/mL	> 500 µg/mL	> 500 µg/mL	> 500 µg/mL	500 µg/mL (≈ 1440 µM)	25 µg/mL (≈ 71.9 µM)	> 500 µg/mL	> 500 µg/mL	MIC ([2]; pH 8.2, nutrient agar, 30° C., 48 hours, read-out: Minimum Inhibitory Concentration, Sa): 50 µg/mL (≈ 144 µM); MIC ([7]; 48 h): 25 µg/mL (≈ 71.9 µM); MIC ([8]; 72 h): 100 µg/mL (≈ 288 µM); MIC ([12]; 72 h): 100 µg/mL (≈ 288 µM); MIC ([15]; 72 h): 100 µg/mL (≈ 288 µM); MIC ([16]; pH 6.8, nutrient agar, 30° C., 48 hours, read-out: Minimum Inhibitory Concentration, Bs): 250 µg/mL (≈ 719 µM); MIC ([16]; pH 8.2, nutrient agar, 30° C., 48 hours, read-out: Minimum Inhibitory Concentration, Bs): 100 µg/mL (≈ 288 µM)

From patent publication US5200409A, “Composition and use of substituted 1,3-dithiolo-and 1,4-dithiinoquinoxalines as an antimicrobial” (The Dow Chemical Company, priority 1992, dated 1993)
